According to ChEMBL document CHEMBL1146899, “Redefining the structure-activity relationships of 2,6-methano-3-benzazocines. 4. Opioid receptor binding properties of 8-[N-(4'-phenyl)-phenethyl)carboxamido] analogues of cyclazocine and ethylketocycalzocine” (J Med Chem, 2006):
Activity calls are given as the source filed them. The calls are words filed in the database; no cut-off is given here.

Columns and labels:
[1] = molecular target: Kappa-type opioid receptor (Homo sapiens, UniProt P41145); assay: biochemical; type: cell-based, CHO
Description: Displacement of [3H]U-69593 from human kappa opioid receptor expressed in CHO cells

Mu-type opioid receptor = Mu-type opioid receptor (Homo sapiens, UniProt P35372); assay: Displacement of [3H]DAMGO from human mu opioid receptor expressed in CHO cells; type: cell-based
[2] = molecular target: Delta-type opioid receptor (Homo sapiens, UniProt P41143); assay: Displacement of [3H]naltrindole from human delta opioid receptor expressed in CHO cells; type: cell-based
Mus musculus = assay: Antinociceptive activity in mouse at 1 mg/kg, ip; type: functional, organism-based; design: dose 1 mg/kg

Kappa-type opioid receptor, sequence (P41145 whole entry): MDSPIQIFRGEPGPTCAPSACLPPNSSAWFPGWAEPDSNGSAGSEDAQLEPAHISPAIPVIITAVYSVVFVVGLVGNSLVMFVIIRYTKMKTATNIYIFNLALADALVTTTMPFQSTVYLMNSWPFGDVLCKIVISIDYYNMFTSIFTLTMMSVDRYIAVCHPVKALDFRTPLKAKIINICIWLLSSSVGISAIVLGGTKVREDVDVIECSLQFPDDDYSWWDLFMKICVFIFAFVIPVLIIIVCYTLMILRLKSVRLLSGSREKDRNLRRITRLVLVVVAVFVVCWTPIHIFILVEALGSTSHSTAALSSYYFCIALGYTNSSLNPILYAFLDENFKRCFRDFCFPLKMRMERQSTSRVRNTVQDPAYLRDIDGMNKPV
Delta-type opioid receptor, sequence (P41143 whole entry): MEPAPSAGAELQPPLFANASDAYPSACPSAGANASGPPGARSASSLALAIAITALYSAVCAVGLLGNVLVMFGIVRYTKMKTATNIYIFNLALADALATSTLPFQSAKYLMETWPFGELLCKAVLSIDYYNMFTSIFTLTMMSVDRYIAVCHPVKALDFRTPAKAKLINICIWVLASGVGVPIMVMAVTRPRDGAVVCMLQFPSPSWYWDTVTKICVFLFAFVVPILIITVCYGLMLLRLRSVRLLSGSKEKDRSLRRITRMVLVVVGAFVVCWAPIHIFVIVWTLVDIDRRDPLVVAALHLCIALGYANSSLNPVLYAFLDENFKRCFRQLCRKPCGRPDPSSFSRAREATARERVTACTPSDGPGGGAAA
Mu-type opioid receptor, sequence (P35372 whole entry): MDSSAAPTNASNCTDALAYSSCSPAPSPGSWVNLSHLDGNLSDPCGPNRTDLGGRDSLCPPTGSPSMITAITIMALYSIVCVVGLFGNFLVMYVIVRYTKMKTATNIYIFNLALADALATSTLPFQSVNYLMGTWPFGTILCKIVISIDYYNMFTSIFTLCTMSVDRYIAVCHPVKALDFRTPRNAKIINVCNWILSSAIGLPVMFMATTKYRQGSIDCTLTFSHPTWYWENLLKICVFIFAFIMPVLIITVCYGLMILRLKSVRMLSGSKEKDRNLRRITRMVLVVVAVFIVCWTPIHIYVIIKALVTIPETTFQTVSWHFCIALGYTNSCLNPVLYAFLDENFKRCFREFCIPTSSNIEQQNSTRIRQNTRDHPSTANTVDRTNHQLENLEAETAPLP

SMILES	Ki [1] [µM]	Ki (Mu-type opioid receptor) [µM]	Ki [2] [µM]	Activity (Mus musculus)
C[C@H]1C2Cc3ccc(C(=O)Nc4ccccc4)cc3[C@@]1(C)CCN2CC1CC1	0.27	0.84	2.1	–
C[C@H]1C2Cc3ccc(C(N)=O)cc3[C@@]1(C)CCN2CC1CC1	–	–	0.0052	Active
CC[C@@]12CCN(CC3CC3)C(C(=O)c3ccc(C(N)=O)cc31)[C@@H]2C	0.00047	0.0021	0.023	–
C[C@H]1C2Cc3ccc(C(=O)NCc4ccc(-c5ccccc5)cc4)cc3[C@@]1(C)CCN2CC1CC1 (mixture of isomers)	0.026	0.011	0.17	–
C[C@H]1C2Cc3ccc(C(=O)NCCc4ccccc4)cc3[C@@]1(C)CCN2CC1CC1 (mixture of isomers)	0.0017	0.0035	0.059	–
C[C@H]1C2Cc3ccc(C(=O)NCCCc4ccccc4)cc3[C@@]1(C)CCN2CC1CC1 (mixture of isomers)	0.003	0.0025	0.047	–
C[C@H]1C2Cc3ccc(C(=O)NCc4ccccc4)cc3[C@@]1(C)CCN2CC1CC1 (mixture of isomers)	0.036	0.027	0.21	–
CC[C@@]12CCN(CC3CC3)C(C(=O)c3ccc(C(=O)NCCc4ccc(-c5ccccc5)cc4)cc31)[C@@H]2C (mixture of isomers)	0.0013	0.0031	0.0039	–
C[C@H]1C2Cc3ccc(C(=O)Nc4ccc(-c5ccccc5)cc4)cc3[C@@]1(C)CCN2CC1CC1 (mixture of isomers)	0.027	0.018	0.11	–
C[C@H]1C2Cc3ccc(C(=O)N(C)CCc4ccc(-c5ccccc5)cc4)cc3[C@@]1(C)CCN2CC1CC1 (racemic)	0.011	0.0067	0.012	–
